Tested on: CT26 colorectal carcinoma murine model
Conditions: mouse, in vivo
Method: Efficacy was tested in murine model (BSPN02). CT26 colorectal cell lines in a murine model were chosen to conduct toxicity and safety studies in-vivo. The safety profile of Biomaterial-5-FU was compared with other control groups, and five aspects were evaluated as follows: (i) change in the body weight over time, (ii) organ weight and the ratio of organ to body weight, (iii) Hematoxylin-Eosin (H & E) staining for histological changes, (iv) a hepatic function panel, and (v) blood chemistry to assess impact on bone marrow. For H & E staining, five major organs (liver, heart, spleen, lungs, and kidneys) were collected from the mice at each time point. […] This toxic effect was not observed in mice treated with Biomaterial-5-FU. […] This toxic effect was not observed in mice treated with Biomaterial-5-FU.

## O=c1[nH]cc(F)c(=O)[nH]1 [IV 5-FU, 5-fluoro-1H-pyrimidine-2,4-dione]
  toxic effect: absolute numbers of white blood cells: reduction in the absolute numbers of white blood cells
  toxic effect: number of monocytes and other leukocytes (bone marrow suppression): reduction in the number of monocytes and other leukocytes

From US20250177290A1, “DRUG-ELUTING SURGICAL ARTICLES AND METHODS OF USE THEREOF” (BIOSAPIEN INC., priority 2022, published 2025)
